According to ChEMBL document CHEMBL3045319, “Synthesis, antitumor activity, and structureactivity relationship of some 4H-pyrano[3,2-h]quinoline and 7H-pyrimido[4,5:6,5]pyrano[3,2-h]quinoline derivatives” (Med Chem Res, 2013):
Converted amounts (≈) assume the structure as drawn.

Columns and labels:
[1] = tested on: HepG2; assay: Cytotoxicity against Homo sapiens (human) HepG2 cells assessed as cell viability at 1.56 ug/ml after 48 hr by MTT assay relative to control; type: functional; conditions: HepG2, 48 h, read-out: Activity
[2] = tested on: MCF7; assay: Cytotoxicity against Homo sapiens (human) MCF7 cells assessed as cell viability at 6.25 ug/ml after 48 hr by MTT assay relative to control; type: functional; conditions: MCF7, 48 h, read-out: Activity
[3] = tested on: HepG2; assay: Cytotoxicity against Homo sapiens (human) HepG2 cells assessed as cell viability at 50 ug/ml after 48 hr by MTT assay relative to control; type: functional; conditions: HepG2, 48 h, read-out: Activity
[4] = Cytotoxicity against Homo sapiens (human) HCT cells assessed as cell viability at 6.25 ug/ml after 48 hr by MTT assay relative to control; type: functional; conditions: read-out: Activity
[5] = tested on: HepG2; assay: Cytotoxicity against Homo sapiens (human) HepG2 cells assessed as cell viability at 25 ug/ml after 48 hr by MTT assay relative to control; type: functional; conditions: HepG2, 48 h, read-out: Activity
[6] = tested on: MCF7; assay: Cytotoxicity against Homo sapiens (human) MCF7 cells after 48 hr by MTT assay; type: functional, cell-based; conditions: MCF7, 48 h
[7] = Cytotoxicity against Homo sapiens (human) HCT cells assessed as cell viability at 25 ug/ml after 48 hr by MTT assay relative to control; type: functional; conditions: read-out: Activity
[8] = Cytotoxicity against Homo sapiens (human) HCT cells assessed as cell viability at 12.5 ug/ml after 48 hr by MTT assay relative to control; type: functional; conditions: read-out: Activity
[9] = tested on: HepG2; assay: Cytotoxicity against Homo sapiens (human) HepG2 cells assessed as cell viability at 12.5 ug/ml after 48 hr by MTT assay relative to control; type: functional; conditions: HepG2, 48 h, read-out: Activity
[10] = tested on: MCF7; assay: Cytotoxicity against Homo sapiens (human) MCF7 cells assessed as cell viability at 50 ug/ml after 48 hr by MTT assay relative to control; type: functional; conditions: MCF7, 48 h, read-out: Activity
[11] = tested on: HepG2; assay: Cytotoxicity against Homo sapiens (human) HepG2 cells assessed as cell viability at 6.25 ug/ml after 48 hr by MTT assay relative to control; type: functional; conditions: HepG2, 48 h, read-out: Activity
[12] = Cytotoxicity against Homo sapiens (human) HCT cells assessed as cell viability at 50 ug/ml after 48 hr by MTT assay relative to control; type: functional; conditions: read-out: Activity
[13] = tested on: MCF7; assay: Cytotoxicity against Homo sapiens (human) MCF7 cells assessed as cell viability at 1.56 ug/ml after 48 hr by MTT assay relative to control; type: functional; conditions: MCF7, 48 h, read-out: Activity
[14] = Cytotoxicity against Homo sapiens (human) HCT cells assessed as cell viability at 1.56 ug/ml after 48 hr by MTT assay relative to control; type: functional; conditions: read-out: Activity
[15] = Cytotoxicity against Homo sapiens (human) HCT cells assessed as cell viability at 3.125 ug/ml after 48 hr by MTT assay relative to control; type: functional; conditions: read-out: Activity
[16] = tested on: MCF7; assay: Cytotoxicity against Homo sapiens (human) MCF7 cells assessed as cell viability at 12.5 ug/ml after 48 hr by MTT assay relative to control; type: functional; conditions: MCF7, 48 h, read-out: Activity
[17] = tested on: MCF7; assay: Cytotoxicity against Homo sapiens (human) MCF7 cells assessed as cell viability at 25 ug/ml after 48 hr by MTT assay relative to control; type: functional; conditions: MCF7, 48 h, read-out: Activity
[18] = tested on: HepG2; assay: Cytotoxicity against Homo sapiens (human) HepG2 cells after 48 hr by MTT assay; type: functional, cell-based; conditions: Homo sapiens, HepG2, 48 h; read-out: IC50
[19] = tested on: HepG2; assay: Cytotoxicity against Homo sapiens (human) HepG2 cells assessed as cell viability at 3.125 ug/ml after 48 hr by MTT assay relative to control; type: functional; conditions: HepG2, 48 h, read-out: Activity
[20] = Cytotoxicity against Homo sapiens (human) HCT cells after 48 hr by MTT assay; type: functional, cell-based
[21] = tested on: MCF7; assay: Cytotoxicity against Homo sapiens (human) MCF7 cells assessed as cell viability at 3.125 ug/ml after 48 hr by MTT assay relative to control; type: functional; conditions: MCF7, 48 h, read-out: Activity

Structure (SMILES)	viability at 1.56 µg/mL [1] [%]	viability at 6.25 µg/mL [2] [%]	viability at 50 µg/mL [3] [%]	viability at 6.25 µg/mL [4] [%]	viability at 25 µg/mL [5] [%]	IC50 [6] [µg/mL]	viability at 25 µg/mL [7] [%]	viability at 12.5 µg/mL [8] [%]	viability at 12.5 µg/mL [9] [%]	viability at 50 µg/mL [10] [%]	viability at 6.25 µg/mL [11] [%]	viability at 50 µg/mL [12] [%]	viability at 1.56 µg/mL [13] [%]	viability at 1.56 µg/mL [14] [%]	viability at 3.125 µg/mL [15] [%]	viability at 12.5 µg/mL [16] [%]	viability at 25 µg/mL [17] [%]	IC50 [18] [µg/mL]	viability at 3.125 µg/mL [19] [%]	IC50 [20] [µg/mL]	further results
N#CC1=C(/N=C/NN)Oc2c(ccc3cccnc23)C1c1ccc(Cl)cc1 (configuration not stated)	88.2	55	24.9	55.6	29.1	8.4 (≈ 22.4 µM)	29.2	36	36	21.4	60.9	24.8	78.8	81.4	65.2	45	35.2	8.7 (≈ 23.1 µM)	78.4	7.4 (≈ 19.7 µM)	viability at 3.125 µg/mL [21]: 67%
CN/C=N/C1=C(C#N)C(c2ccc(Cl)cc2)c2ccc3cccnc3c2O1 (configuration not stated)	52.8	50.1	9.28	29.4	17.9	6.3 (≈ 16.8 µM)	13.6	22.2	30.4	16.8	39	11.1	76.8	58.2	41.4	29.2	21.4	1.9 (≈ 5.07 µM)	45.7	2.3 (≈ 6.14 µM)	viability at 3.125 µg/mL [21]: 65%
